Reference: US12606543B2, “Indole derivatives as serotonergic agents useful for the treatment of disorders related thereto” (priority 2023, dated 2026)

Columns and labels:
Assay type in all cases: in vitro ADME
[1] = Liver microsomes stability, mouse; details: for T1/2: <4.51 if % remaining at 30 min below 1%
Protocol: (§1) The objective of this study was to estimate in vitro metabolic stability of exemplary compounds of Formula (I) or a pharmaceutically acceptable salt, solvate, and/or prodrug thereof in pooled human, male rat, and male mouse liver microsomes. The concentrations of compounds in reaction systems were evaluated by LC-MS/MS for estimating the stability in pooled human, male rat, and male mouse liver microsomes. The in vitro intrinsic clearances of test compounds were determined as well.
(§2) A master solution in the “Incubation Plate” containing phosphate buffer, ultra-pure H2O, MgCl2 solution and liver microsomes was made according to Table 33. The mixture was pre-warmed at 37° C. water bath for 5 minutes.
(§3) 40 μL of 10 mM nicotinamide adenine dinucleotide phosphate (NADPH) solution was added to each well. The final concentration of NADPH was 1 mM. The negative control samples were prepared by replacing NADPH with 40 μL of ultra-pure H2O. Samples were prepared in duplicate. Negative controls were prepared in singlet.
(§4) The reaction was started with the addition of 4 μL of 200 μM exemplary test compounds of the disclosure or control compounds to each master solution to get the final concentration of 2 μM. This study was performed in duplicate.
(§5) Aliquots of 50 μL were taken from the reaction solution at 0, 15, 30, 45, and 60 minutes. The reaction solutions were stopped by the addition of 4 volumes of cold methanol with IS (100 nM alprazolam, 200 nM imipramine, 200 nM labetalol, and 2 μM ketoprofen). Samples were centrifuged at 3,220 g for 40 minutes. Aliquot of 90 μL of the supernatant was mixed with 90 μL of ultra-pure H2O and then was used for LC-MS/MS analysis.
(§6) LC/MS analysis was performed for all samples from this study using a Shimadzu liquid chromatograph separation system equipped with degasser DGU-20A5R; solvent delivery unit LC-30AD; system controller SIL-30AC; column oven CTO-30A; CTC Analytics HTC PAL System. Mass spectrometric analysis was performed using a Triple Quad™ 5500 instrument.
(§7) All calculations were carried out using Microsoft Excel. Peak area ratios of test compound to internal standard (listed in the below table) were determined from extracted ion chromatograms.
(§8) All calculations were carried out using Microsoft Excel. Peak areas were determined from extracted ion chromatograms. The slope value, k, was determined by linear regression of the natural logarithm of the remaining percentage of the parent drug vs. incubation time curve.
(§9) The in vitro half-life (in vitro t1/2) was determined from the slope value:
(§10) Conversion of the in vitro t1/2 (min) into the in vitro intrinsic clearance (in vitro CLint, in μL/min/mg proteins) was done using the following equation (mean of duplicate determinations): […]
(§11) The objective of this study was to estimate in vitro metabolic stability of exemplary compounds of Formula (I) or a pharmaceutically acceptable salt, solvate and/or prodrug thereof in pooled human, male rat and male mouse liver microsomes. The concentrations of compounds in reaction systems were evaluated by LC-MS/MS for estimating the stability in pooled human, male rat and male mouse liver microsomes. The in vitro intrinsic clearances of test compounds were determined as well.
(§12) A master solution in the “Incubation Plate” containing phosphate buffer, ultra-pure H2O, MgCl2 solution and liver microsomes was made according to Table 67. The mixture was pre-warmed at 37° C. water bath for 5 minutes.
(§13) 40 μL of 10 mM NADPH solution was added to each well. The final concentration of NADPH was 1 mM. The negative control samples were prepared by replacing NADPH with 40 μL of ultra-pure H2O. Samples were prepared in duplicate. Negative controls were prepared in singlet
(§14) Aliquots of 50 μL were taken from the reaction solution at 0, 15, 30, 45 and 60 minutes. The reaction solutions were stopped by the addition of 4 volumes of cold methanol with IS (100 nM alprazolam, 200 nM imipramine, 200 nM labetalol and 2 μM ketoprofen). […]

[2] = Liver microsomes stability, human
Protocol: as §1, §2, §3, §4, §5, §6, §7, §8, §9, §10, §11, §12, §13
Aliquots of 50 μL were taken from the reaction solution at 0, 15, 30, 45 and 60 minutes. The reaction solutions were stopped by the addition of 4 volumes of cold methanol with IS (100 nM alprazolam, 200 nM imipramine, 200 nM labetalol and 2 μM ketoprofen).

[3] = Liver microsomes stability, rat; details: for CLint / T1/2: 2 μM, 0.5 mg/mL, NADPH
Protocol: as §1, §2, §3, §4, §5, §6, §7, §8, §9, §10, §11, §12, §13, §14

[4] = Mouse liver microsomes, 2 μM, 0.5 mg/mL, NADPH
[5] = mouse liver microsomes, With Cofactors, 0 min
[6] = mouse liver microsomes, With Cofactors, 30 min
[7] = mouse liver microsomes, With Cofactors, 60 min
[8] = mouse liver microsomes, Without Cofactors, 0 min
[9] = mouse liver microsomes, Without Cofactors, 30 min
[10] = mouse liver microsomes, Without Cofactors, 60 min
[11] = human liver microsomes, With Cofactors, 0 min
[12] = human liver microsomes, With Cofactors, 30 min
[13] = human liver microsomes, With Cofactors, 60 min
[14] = human liver microsomes, Without Cofactors, 0 min
[15] = human liver microsomes, Without Cofactors, 30 min
[16] = human liver microsomes, Without Cofactors, 60 min
[17] = Rat liver microsomes, With Cofactors, 0 min
[18] = Rat liver microsomes, With Cofactors, 30 min
[19] = Rat liver microsomes, With Cofactors, 60 min
[20] = Rat liver microsomes, Without Cofactors, 0 min
[21] = Rat liver microsomes, Without Cofactors, 30 min
[22] = Rat liver microsomes, Without Cofactors, 60 min
[23] = rat liver microsomes, With Cofactors, 0 min
[24] = rat liver microsomes, With Cofactors, 30 min
[25] = rat liver microsomes, With Cofactors, 60 min
[26] = rat liver microsomes, Without Cofactors, 0 min
[27] = rat liver microsomes, Without Cofactors, 30 min
[28] = rat liver microsomes, Without Cofactors, 60 min
[29] = Human liver microsomes, 2 μM, 0.5 mg/mL, NADPH

Structure (SMILES): O=C(O)Cc1ccccc1Nc1c(Cl)cccc1Cl [Diclofenac]
- Predicted hepatic CL ([1]; Mouse liver microsomes): 54.78 mL/min/kg
- Scaled-up CLint ([1]; Mouse liver microsomes): 140.00 mL/min/kg
- T1/2 [1, 4]: 43.31 min
- Predicted hepatic CL ([1]; mouse liver microsomes): 56.11 mL/min/kg
- Scaled-up CLint ([1]; mouse liver microsomes): 149.03 mL/min/kg
- CLint ([1]; mouse liver microsomes, 2 μM compound, 0.5 mg/mL microsomes): 34.06 μL/min/mg protein
- Remaining Percentage [1, 5]: 100.00%
- Remaining Percentage (%) 0 min [1, 5]: 100.00%
- Remaining Percentage [1, 6]: 45.55%
- Remaining Percentage (%) 30 min [1, 6]: 45.55%
- Remaining Percentage [1, 7]: 33.71%
- Remaining Percentage (%) 60 min [1, 7]: 33.71%
- Remaining Percentage [1, 8]: 100.00%
- Remaining Percentage (%) 0 min [1, 8]: 100.00%
- Remaining Percentage [1, 9]: 89.49%
- Remaining Percentage (%) 30 min [1, 9]: 89.49%
- Remaining Percentage [1, 10]: 96.59%
- Remaining Percentage (%) 60 min [1, 10]: 96.59%
- Predicted hepatic CL ([2]; Human liver microsomes): 18.35 mL/min/kg
- Scaled-up CLint ([2]; Human liver microsomes): 161.94 mL/min/kg
- Predicted hepatic CL ([2]; human liver microsomes): 18.38 mL/min/kg
- Scaled-up CLint ([2]; human liver microsomes): 164.18 mL/min/kg
- Remaining Percentage [2, 11]: 100.00%
- Remaining Percentage (%) 0 min [2, 11]: 100.00%
- Remaining Percentage [2, 12]: 5.01%
- Remaining Percentage (%) 30 min [2, 12]: 5.01%
- Remaining Percentage [2, 13]: 1.77%
- Remaining Percentage (%) 60 min [2, 13]: 1.77%
- Remaining Percentage [2, 14]: 100.00%
- Remaining Percentage (%) 0 min [2, 14]: 100.00%
- Remaining Percentage [2, 15]: 112.67%
- Remaining Percentage (%) 30 min [2, 15]: 112.67%
- Remaining Percentage [2, 16]: 96.67%
- Remaining Percentage (%) 60 min [2, 16]: 96.67%
- Predicted hepatic CL ([3]; Rat liver microsomes): 41.25 mL/min/kg
- Scaled-up CLint ([3]; Rat liver microsomes): 163.16 mL/min/kg
- CLint ([3]; Rat liver microsomes): 91.05 μL/min/mg protein
- T1/2 ([3]; Rat liver microsomes): 15.22 min
- Remaining Percentage (%) 0 min [3, 17]: 100.00%
- Remaining Percentage (%) 30 min [3, 18]: 11.86%
- Remaining Percentage (%) 60 min [3, 19]: 6.35%
- Remaining Percentage (%) 0 min [3, 20]: 100.00%
- Remaining Percentage (%) 30 min [3, 21]: 102.19%
- Remaining Percentage (%) 60 min [3, 22]: 100.63%
- Predicted hepatic CL ([3]; rat liver microsomes): 41.22 mL/min/kg
- Scaled-up CLint ([3]; rat liver microsomes): 162.69 mL/min/kg
- Remaining Percentage [3, 23]: 100.00%
- Remaining Percentage [3, 24]: 11.86%
- Remaining Percentage [3, 25]: 6.35%
- Remaining Percentage [3, 26]: 100.00%
- Remaining Percentage [3, 27]: 102.19%
- Remaining Percentage [3, 28]: 100.63%

Structure (SMILES): COc1ccc2[nH]cc(CCN(C)C)c2c1 [5-MeO-DMT]
- Predicted hepatic CL ([1]; Mouse liver microsomes): 54.19 mL/min/kg
- Scaled-up CLint ([1]; Mouse liver microsomes): 136.21 mL/min/kg
- T1/2 [1, 4]: 44.52 min
- CLint ([1]; Mouse liver microsomes, 2 μM, 0.5 mg/mL, NADPH, >307.01 if % remaining at 30 min below 1%): 31.13 μL/min/mg protein
- Remaining Percentage [1, 5]: 100.00%
- Remaining Percentage (%) 0 min [1, 5]: 100.00%
- Remaining Percentage [1, 6]: 61.84%
- Remaining Percentage (%) 30 min [1, 6]: 61.84%
- Remaining Percentage [1, 7]: 39.30%
- Remaining Percentage (%) 60 min [1, 7]: 39.30%
- Remaining Percentage [1, 8]: 100.00%
- Remaining Percentage (%) 0 min [1, 8]: 100.00%
- Remaining Percentage [1, 9]: 104.76%
- Remaining Percentage (%) 30 min [1, 9]: 104.76%
- Remaining Percentage [1, 10]: 95.24%
- Remaining Percentage (%) 60 min [1, 10]: 95.24%
- Predicted hepatic CL ([2]; Human liver microsomes): 18.09 mL/min/kg
- Scaled-up CLint ([2]; Human liver microsomes): 143.22 mL/min/kg
- CLint [2, 29]: 114.19 μL/min/mg protein
- T1/2 [2, 29]: 12.14 min
- Remaining Percentage [2, 11]: 100.00%
- Remaining Percentage (%) 0 min [2, 11]: 100.00%
- Remaining Percentage [2, 12]: 19.24%
- Remaining Percentage (%) 30 min [2, 12]: 19.24%
- Remaining Percentage [2, 13]: 3.25%
- Remaining Percentage (%) 60 min [2, 13]: 3.25%
- Remaining Percentage [2, 14]: 100.00%
- Remaining Percentage (%) 0 min [2, 14]: 100.00%
- Remaining Percentage [2, 15]: 18.58%
- Remaining Percentage (%) 30 min [2, 15]: 18.58%
- Remaining Percentage [2, 16]: 3.00%
- Remaining Percentage (%) 60 min [2, 16]: 3.00%
- Predicted hepatic CL ([3]; Rat liver microsomes): 49.02 mL/min/kg
- Scaled-up CLint ([3]; Rat liver microsomes): 437.56 mL/min/kg
- CLint ([3]; Rat liver microsomes): 244.17 μL/min/mg protein
- T1/2 ([3]; Rat liver microsomes): 5.68 min
- Remaining Percentage (%) 0 min [3, 17]: 100.00%
- Remaining Percentage (%) 30 min [3, 18]: 2.57%
- Remaining Percentage (%) 60 min [3, 19]: 0.36%
- Remaining Percentage (%) 0 min [3, 20]: 100.00%
- Remaining Percentage (%) 30 min [3, 21]: 49.55%
- Remaining Percentage (%) 60 min [3, 22]: 23.82%
- Remaining Percentage [3, 23]: 100.00%
- Remaining Percentage [3, 24]: 2.57%
- Remaining Percentage [3, 25]: 0.36%
- Remaining Percentage [3, 26]: 100.00%
- Remaining Percentage [3, 27]: 49.55%
- Remaining Percentage [3, 28]: 23.82%
